Assay [1] deals with T1, General amino-acid permease GAP1 (Saccharomyces cerevisiae), P19145 [A405C].
T1 sequence (whole entry): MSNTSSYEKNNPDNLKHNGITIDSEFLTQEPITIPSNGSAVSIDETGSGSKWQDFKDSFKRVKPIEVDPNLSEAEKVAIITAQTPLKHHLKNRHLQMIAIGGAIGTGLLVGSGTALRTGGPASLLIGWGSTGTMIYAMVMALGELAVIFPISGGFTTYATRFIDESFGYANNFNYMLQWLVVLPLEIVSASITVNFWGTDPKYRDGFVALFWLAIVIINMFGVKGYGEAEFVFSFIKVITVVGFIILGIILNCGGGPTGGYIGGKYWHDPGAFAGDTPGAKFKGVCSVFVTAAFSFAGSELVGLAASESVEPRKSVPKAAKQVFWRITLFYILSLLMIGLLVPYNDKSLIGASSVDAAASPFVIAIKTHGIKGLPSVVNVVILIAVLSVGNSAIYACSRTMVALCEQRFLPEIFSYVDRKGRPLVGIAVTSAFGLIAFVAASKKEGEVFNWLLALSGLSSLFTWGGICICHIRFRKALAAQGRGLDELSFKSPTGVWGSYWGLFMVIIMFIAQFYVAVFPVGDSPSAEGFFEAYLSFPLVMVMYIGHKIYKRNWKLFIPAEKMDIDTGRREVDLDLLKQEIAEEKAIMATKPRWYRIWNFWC
The experiment in a line: Activation of yeast Gap1 A405C mutant-mediated amino acid uptake at 10 mM.

Assay [2] concerns General amino-acid permease GAP1 (Saccharomyces cerevisiae), P19145 [V402C]. The experiment in a line: Inhibition of yeast Gap1 V402C mutant-mediated trehalose activation at 10 mM.
Assay [3] concerns T2, General amino-acid permease GAP1 (Saccharomyces cerevisiae), P19145 [G390C].
T2 sequence (whole entry): T1 sequence (whole entry) with G390C, C405A
The experiment in a line: Induction of yeast Gap1 G390C mutant-mediated amino acid uptake at 2 mM in presence of 10 mM MTSEA treated before compound addition.

Assay [4] relates to Saccharomyces cerevisiae. The experiment in a line: Induction of yeast Gap1 L404 mutant-mediated trehalose activation at 2 mM in presence of 10 mM MTSEA treated before compound addition.
In assay [5] the test system is T3, General amino-acid permease GAP1 (Saccharomyces cerevisiae), P19145 [A385C].
T3 sequence (whole entry): T1 sequence (whole entry) with A385C, C405A
The experiment in a line: Activation of yeast Gap1 A385C mutant-mediated amino acid uptake at 10 mM.

For assay [6] the test system is unchanged. The experiment in a line: Induction of yeast Gap1 A385C mutant-mediated trehalose activation at 10 mM.
Assay [7] concerns Saccharomyces cerevisiae. The experiment in a line: Induction of yeast Gap1 L404 mutant-mediated trehalose activation at 10 mM.
Assay [8] has as its system T4, General amino-acid permease GAP1 (Saccharomyces cerevisiae), P19145 [I382C].
T4 sequence (whole entry): T1 sequence (whole entry) with I382C, C405A
The experiment in a line: Induction of yeast Gap1 I382C mutant-mediated amino acid uptake at 2 mM in presence of 10 mM MTSEA treated before compound addition.

Residue numbers refer to the chain shown, from its start. Active and inactive are the calls of the source. The rule behind the calls is not given here.

Sequence of General amino-acid permease GAP1 (Saccharomyces cerevisiae), P19145 [V402C] (P19145 whole entry V402C): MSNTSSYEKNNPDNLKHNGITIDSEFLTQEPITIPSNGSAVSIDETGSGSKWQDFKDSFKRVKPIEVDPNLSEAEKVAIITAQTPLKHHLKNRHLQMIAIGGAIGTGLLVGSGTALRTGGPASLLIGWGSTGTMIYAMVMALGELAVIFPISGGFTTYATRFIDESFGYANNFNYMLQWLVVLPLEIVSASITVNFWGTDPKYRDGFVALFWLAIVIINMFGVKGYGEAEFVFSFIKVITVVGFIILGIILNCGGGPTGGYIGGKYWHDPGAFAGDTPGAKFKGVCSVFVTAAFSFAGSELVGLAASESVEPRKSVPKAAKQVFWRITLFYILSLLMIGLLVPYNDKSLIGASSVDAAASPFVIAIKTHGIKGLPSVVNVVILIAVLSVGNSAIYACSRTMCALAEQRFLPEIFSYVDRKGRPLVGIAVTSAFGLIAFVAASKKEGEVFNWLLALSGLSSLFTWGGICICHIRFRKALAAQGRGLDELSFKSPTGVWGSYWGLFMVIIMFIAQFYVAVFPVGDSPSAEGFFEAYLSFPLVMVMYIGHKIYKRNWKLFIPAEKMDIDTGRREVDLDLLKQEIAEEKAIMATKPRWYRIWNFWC

`NC(=O)NCCC[C@H](N)C(=O)O`: the result in assay [1], in assay [5], in assay [6] and in assay [7] was inactive. Also, the inhibition result in assay [2] and in assay [4] was “Active” throughout. The result in assay [3] and in assay [8] was Active.
